Experimental data: patent publication US6022307A, “Substituted dibenzothiophenes having antiangiogenic activity” (American Cyanamid Company, priority 1999, dated 2000)
Structures can show the parent of a compound that is named as a salt.

Experiments:
[1] = system: VEGF 165-induced vascular permeability; assay: Inhibition of Vascular Permeability Assay (Miles Assay); type: in vivo, BALB/c female mice; settings: 100 mg/kg, PO
Protocol: Inhibition of Vascular Permeability Assay (Miles Assay) This assay was performed using BALB/c female mice (Charles River, Wilmington, Mass.). Both sides of the animals were shaved between 24 and 48 hours before the start of the assay. There were 10 animals per experimental group. […] One half hour later the animals were sacrificed by CO2 inhalation. […] Data was statistically analyzed via Student-t-test. A p-value (p≤0.05) indicates a statistically significant difference between the area of vascular permeability of the vehicle control verses the experimental group. Data was statistically analyzed via Student-t-test of Log Relative Area of Permiability. A p-value (p≤0.05) indicates a statistically significant reduction in permeability of Treated Group, compared to Placebo Control.

[2] = system: KDR
Protocol: Inhibition of Binding of VEGF 165 to KDR & Flt-1 Receptors as Measured by SPA Assay
Preparation of conditioned media containing the KDR-Fc soluble VEGF receptor.:
Human 293KDR2 cells, which secrete a soluble KDR-Fc fusion protein, were grown in Dulbecco's Modified Eagle Medium supplemented with 10% fetal calf serum, 2 mM glutamine, 10 units/ml penicillin G sulfate, 10 μg/ml streptomycin sulfate and 175 μg/ml geneticin (G418) sulfate. Cells were plated at a density of 10^6 cells/100 mm dish and incubated at 37° C. in a humidified atmosphere containing 95% air and 5% CO2. After 10 days, conditioned medium was collected and centrifuged at 15,000 rpm for 15 min to remove dead cells. A total of 0.1 volume of 1.15% gelatin and 0.02 volume of 1M HEPES buffer (pH 8) was added. Leupeptin and pepstatin A were added to 1 μg/ml each.
Preparation of ^125 I-labelled VEGF ligand:
Recombinant human ^125 T-labelled VEGF 165 was purchased from Amersham (3,800 cpm/fmol). ^125,-labelled VEGF was diluted in DMEM supplemented with gelatin (0.15%) and HEPES buffer (20 mM) to a final concentration of 40,000 cpm/25 μl.
Preparation of SPA beads:
SPA PVT antibody-binding beads were purchased from Amersham. Each bottle of SPA beads (500 mg) was reconstituted in 25 ml of DMEM supplemented with gelatin (0.15%) and HEPES buffer (20 mM). The bottle contents were well mixed (15 min with a stir bar at room temperature).
SPA assays were performed in flat-bottom polystyrene 96 well microtitre plates.
(a) Pipette 50 μl of SPA beads to well.
(b) Pipette 25 μl of conditioned medium to well.
(d) Pipette 25 μl of ^125 J-VEGF 165 to well.
The appropriate control wells were set up to measure non-specific binding, solvent effect, etc. The assays were run in duplicate or triplicate wells. Plates were sealed and incubate at room temperature without shaking for 5 to 20 hours. Plates were then counted in a Packard TopCount microtitre plate liquid scintillation counter.
A typical assay gave 3,000 to 6,000 cpm bound. Background binding (measured in the presence of 100-fold molar excess of unlabelled VEGF 165) was typically 200 to 300 cpm bound. Compounds were tested at 30, 10, 3, 1, 0.3 and 0.1 μg/ml in DMSO. […] Half maximal binding was determined by the following equation:
s=maximal cpm bound in the absence of compound.
The IC50 values were determined graphically by the following procedure:
A graph was drawn plotting compound concentration (x-axis) versus cpm bound (y-axis).
The half maximal binding was calculated using the equation above.
A horizontal line (LINE A) was drawn which intersects the y-axis at the half maximal binding value.
A vertical line (LINE B) was drawn through the point where LINE A intersects the inhibition curve.
The point where LINE B intersects the x-axis was extrapolated from the graph to give the IC50 value.

[3] = system: corneal neovascularization; assay: Corneal Neovascularization Model; type: in vivo, mice; settings: 100 mg/kg, PO, days 1-10
Protocol: Corneal Neovascularization Model
The sustained release preparations of angiogenic agents (ELVAX pellet) were prepared by solvent casting. […] The solvent was then evaporated, leaving the angiogenic agent in the polymeric matrix
Mice were anesthetized using a 1-1.5 ml/kg solution containing a mixture of 70% ketamine hydrochloride (100 mg/ml) and 30% xylazine (20 mg/ml). Using sterile surgical technique, an ELVAX pellet containing either basic FGF (100 ng) or VEGF (400 ng) was implanted into a previously dissected intrastromal corneal pocket 0.5 mm from the corneoscleral limbus. Following implantation the implantation site margins were reapposed and the eyes were treated with topical antibiotic ointment (bacitracin/neomycin/polymixin). On various days (between postoperative days 4 and 18) the extent of neovascularization was measured.
Neovascularization was monitored by measurements of new vessel growth within the previously avascular cornea. This parameter was obtained by measuring with calipers under microscopic magnification the length of the base of the neovascular bed at the limbus. The area of neovascularization,which is typically triangular, was calculated by dividing the product of the length of the vessel and the base length by two. Data was statistically analyzed via Student-t-test of Log Relative Reduction of Neovascularization. A p-value (p≤0.05) indicates a statistically significant reduction in neovascularization of Treated Group, compared to Placebo Control.

**Q.** Which results are given for O=C(C=Cc1ccc(-c2ccccc2)cc1)Nc1cc2c(cc1S(=O)(=O)O)-c1cc(S(=O)(=O)O)c(NC(=O)C=Cc3ccc(-c4ccccc4)cc3)cc1S2(=O)=O [Example 24, 3,7-Bis-[3-(4-phenylphenyl)acryloylamino]-5,5-dioxo-5H-5λ^6-dibenzothiophene-2,8-disulfonic acid, disodium salt]?
**A.** % Control ([1]; 1 hr prior to VEGF): 55%; Lesion Area (measured area of vascular permeability) ([1]; 1 hr prior to VEGF): 25.8 mm^2; % Control ([1]; 2 hr prior to VEGF): 80%; Lesion Area (measured area of vascular permeability) ([1]; 2 hr prior to VEGF): 37.8 mm^2; % Control ([1]; 4 hr prior to VEGF): 49%; Lesion Area (measured area of vascular permeability) ([1]; 4 hr prior to VEGF): 23.1 mm^2; IC50 [2]: 0.8 mg/L

**Q.** How did the “% Control” value ([1]; 4 hr prior to VEGF) turn out when O=C(Nc1cc2sc3cc(NC(=O)c4cc5ccccc5s4)c(C(=O)O)cc3c2cc1C(=O)O)c1cc2ccccc2s1 [Example 2, 3,7-Bis-r(benzo[b]thiophene-2-carbonyl)amino]dibenzothiophene-2,8-dicarboxylic acid, disodium salt] was run?
**A.** 57%

**Q.** What about the “Lesion Area (measured area of vascular permeability)” value (shortened to “Lesion Area”) ([1]; 4 hr prior to VEGF) of the same molecule?
**A.** 34.0 mm^2

**Q.** And the IC50 [2]?
**A.** 1.5 mg/L

**Q.** O=C(Nc1cc2c(cc1S(=O)(=O)O)-c1cc(S(=O)(=O)O)c(NC(=O)c3cc4ccccc4o3)cc1S2(=O)=O)c1cc2ccccc2o1 [Example 42, 3,7-Bis[(benzo[b]furan-2-carbonyl)amino]-5,5-dioxo-5H-5^6-dibenzothiophene-2,8-disulfonic acid, disodium salt] was tested. Which “% Control” value ([1]; 2 hr prior to VEGF) did it give?
**A.** 74%

**Q.** What about the “Lesion Area” value ([1]; 2 hr prior to VEGF) of the same molecule?
**A.** 40.0 mm^2

**Q.** What about the “Lesion Area” value ([1]; 2 hr prior to VEGF, disodium salt) of the same molecule?
**A.** 33.5 mm^2

**Q.** And the “% Control” value ([1]; 4 hr prior to VEGF)?
**A.** 69%

**Q.** What about the “Lesion Area” value ([1]; 4 hr prior to VEGF) of the same molecule?
**A.** 31.1 mm^2

**Q.** What about the IC50 [2] of the same molecule?
**A.** 0.6 mg/L

**Q.** Which results are given for O=C(Nc1cc2sc3cc(NC(=O)c4ccc5c(c4)C(=O)c4ccccc4C5=O)c(C(=O)O)cc3c2cc1C(=O)O)c1ccc2c(c1)C(=O)c1ccccc1C2=O.[Na].[Na] [Example 4, 3,7-Bis{[(9,10-dihydro-9,10-dioxo-2-anthracenyl)carbonyl]-amino}dibenzothiophene-2,8-dicarboxylic acid, disodium]?
**A.** Inhibition of Corneal Neovascularization ([3]; Day 4): 55%; Inhibition of Corneal Neovascularization ([3]; Day 8): 38%; Inhibition of Corneal Neovascularization ([3]; Day 11): 40%; Inhibition of Corneal Neovascularization ([3]; Day 13): 23%; IC50 [2]: 0.2 mg/L

**Q.** Which “Inhibition of Corneal Neovascularization” value ([3]; Day 4) does the source give for COc1ccc(/C=C/C(=O)Nc2cc3sc4cc(NC(=O)/C=C/c5ccc(OC)cc5)c(C(=O)O)cc4c3cc2C(=O)O)cc1 [Example 12, 3,7-Bis{[3-(4-methoxyphenyl)acryloylamino]-dibenzothiophene-2,8-dicarboxylic Acid, disodium salt] here?
**A.** 41%

**Q.** What about the “Inhibition of Corneal Neovascularization” value ([3]; Day 8) of the same molecule?
**A.** 41%

**Q.** And the “Inhibition of Corneal Neovascularization” value ([3]; Day 11)?
**A.** 34%

**Q.** What about the “Inhibition of Corneal Neovascularization” value ([3]; Day 13) of the same molecule?
**A.** 8%

**Q.** And the IC50 [2]?
**A.** 4.9 mg/L

**Q.** How did the “% Control” value ([1]; 4 hr prior to VEGF) turn out when COc1ccc2cc(C(=O)Nc3cc4c(cc3S(=O)(=O)O)-c3cc(S(=O)(=O)O)c(NC(=O)c5cc6ccc(OC)cc6oc5=O)cc3S4(=O)=O)c(=O)oc2c1 [Example 47, 3,7-Bis-[(7-methoxy-2-oxo-benzopyran-3-yl)-carbonylamino]-5,5-dioxo-5H-5^6-dibenzothiophene-2,8-disulfonic acid, disodium salt] was run?
**A.** 71%

**Q.** What about the “Lesion Area” value ([1]; 4 hr prior to VEGF) of the same molecule?
**A.** 32.8 mm^2

**Q.** What about the IC50 [2] of the same molecule?
**A.** 0.5 mg/L

**Q.** O=Cc1ccc(/C=C/C(=O)Nc2cc3c(cc2S(=O)(=O)O)-c2cc(S(=O)(=O)O)c(NC(=O)/C=C/c4ccc(C=O)cc4)cc2S3(=O)=O)cc1 [Example 29, 3,7-Bis-[3-(4-formylphenyl)-acryloylamino]-5,5-dioxo-5H-5^6-dibenzothiophene-2,8-disulfonic acid, disodium salt] was tested. Which “% Control” value ([1]; 4 hr prior to VEGF) did it give?
**A.** 81%

**Q.** What about the “Lesion Area” value ([1]; 4 hr prior to VEGF) of the same molecule?
**A.** 76.5 mm^2

**Q.** What about the IC50 [2] of the same molecule?
**A.** 0.5 mg/L

**Q.** Which IC50 [2] does the source give for CCOc1cc2ccccc2cc1C(=O)Nc1cc2c(cc1S(=O)(=O)O)-c1cc(S(=O)(=O)O)c(NC(=O)c3cc4ccccc4cc3OCC)cc1S2(=O)=O [Example 53, 3,7-Bis-(3-ethoxy-naphthalen-2-ylcarbonylamino)-5,5-dioxo-5H-5^6-dibenzothiophene-2,8-disulfonic acid, disodium salt] here?
**A.** 7 mg/L

**Q.** With O=C(/C=C/c1ccncc1)Nc1cc2c(cc1S(=O)(=O)O)-c1cc(S(=O)(=O)O)c(NC(=O)/C=C/c3ccncc3)cc1S2(=O)=O [Example 28, 5,5-Dioxo-3,7-bis-(3-pyridin-4-ylacryloylamino)-5H-5^6-dibenzothiophene-2,8-disulfonic acid, disodium salt] as the molecule, how does the IC50 [2] read?
**A.** 2.5 mg/L

**Q.** COc1ccccc1C=CC(=O)Nc1cc2c(cc1S(=O)(=O)O)-c1cc(S(=O)(=O)O)c(NC(=O)C=Cc3ccccc3OC)cc1S2(=O)=O [Example 37, 3,7-Bis-[3-(2-methoxyphenyl)-acryloylamino]-5,5-dioxo-5H-5^6-dibenzothiophene-2,8-disulfonic acid, disodium salt] was tested. Which IC50 [2] did it give?
**A.** 2 mg/L

**Q.** For CCOP(=O)(O)c1cc2c(cc1NC(=O)c1ccc3cc4ccccc4cc3c1)S(=O)(=O)c1cc(NC(=O)c3ccc4cc5ccccc5cc4c3)c(P(=O)(O)OCC)cc1-2 [Example 22, [3,7-Bis-[(anthracene-2-carbonyl)amino]-8-(ethoxyhydroxy-phosphoryl)-5,5-dioxo-5H-5^6-dibenzothiophen-2-yl]-phosphonic acid mono-ethyl ester, disodium salt], which IC50 [2] is on record?
**A.** 0.06 mg/L

**Q.** How did the IC50 [2] turn out when Cc1ccc(C)c(/C=C/C(=O)Nc2cc3c(cc2S(=O)(=O)O)-c2cc(S(=O)(=O)O)c(NC(=O)/C=C/c4cc(C)ccc4C)cc2S3(=O)=O)c1 [Example 35, 3,7-Bis-[3-(2,5-dimethylphenyl)-acryloylamino]-5,5-dioxo-5H-5^6-dibenzothiophene-2,8-disulfonic acid, disodium] was run?
**A.** 2.5 mg/L

**Q.** For COc1ccc(/C=C/C(=O)Nc2cc3sc4cc(NC(=O)/C=C/c5ccc(OC)c(OC)c5OC)c(C(=O)O)cc4c3cc2C(=O)O)c(OC)c1OC [Example 11, 3,7-Bis-[3-(2,3,4-trimethoxyphenyl)acryloylamino]dibenzothiophene-2,8-dicarboxylic Acid, disodium salt], which IC50 [2] is on record?
**A.** 1.7 mg/L

**Q.** How did the IC50 [2] turn out when O=C(/C=C/c1cccc2ccccc12)Nc1cc2c(cc1S(=O)(=O)O)-c1cc(S(=O)(=O)O)c(NC(=O)/C=C/c3cccc4ccccc34)cc1S2(=O)=O [Example 26, 3,7-Bis-(3-naphthalen-1-yl-acryloylamino)-5,5-dioxo-5H-5^6-dibenzothiophene-2,8-disulfonic acid, disodium salt] was run?
**A.** 1.5 mg/L

**Q.** For O=C(Nc1cc2sc3cc(NC(=O)c4ccc5cc6ccccc6cc5c4)c(C(=O)O)cc3c2cc1C(=O)O)c1ccc2cc3ccccc3cc2c1 [Example 3, 3,7-Bis[(2-anthracenylcarbonyl)amino]-2,8-dibenzothiophene-2,8-dicarboxylic acid, disodium salt], which IC50 [2] is on record?
**A.** 3.4 mg/L

**Q.** What does the source list for COc1ccc(C=CC(=O)Nc2cc3sc4cc(NC(=O)C=Cc5ccc(OC)c(OC)c5Cl)c(C(=O)[O-])cc4c3cc2C(=O)[O-])c(Cl)c1OC.[Na+].[Na+]?
**A.** Inhibition of Corneal Neovascularization ([3]; Day 4): 11%; Inhibition of Corneal Neovascularization ([3]; Day 8): 24%; Inhibition of Corneal Neovascularization ([3]; Day 11): 29%; Inhibition of Corneal Neovascularization ([3]; Day 13): 37%
